Results published in patent publication US20250352524A1, “PREVENTION OF METASTATIC OUTGROWTH USING TEAD INHIBITORS” (Georgetown University, priority 2024, published 2025).

Columns and labels:
4T1 spheres = experiment: 3D sphere co-culture assay, 4T1 spheres with T-cells and/or macrophages; assay type: cell-based, mouse; settings: for cleaved caspase-3 in 4T1 cells: 24 hours
Protocol: T-cells were isolated from the spleens of naïve mice, activated by CD3/CD28, and treated with either 1 μM iTEAD or vehicle. Peritoneal macrophages were isolated from the peritoneal lavage of naïve mice after attachment on culture dishes and treated with either 1 μM iTEAD or vehicle. The immune cells were mixed with tumor cells that were aggregated into spheres in u-shaped molds for 24 hours (FIG. 7).
To investigate whether the effect of iTEAD treatment on macrophages can enhance their crosstalk with T-cells in the lung microenvironment, peritoneal macrophages+/−iTEAD were first isolated and characterized as a model of resident macrophages for ex vivo experiments (FIG. 14, Panel A). It was observed that treatment with VT107 decreased gene expression of M2-like and fibrosis regulators, Aldh1a1 and Cc117 (Chen et al., 2020), as well as TEAD4 and its downstream target gene Ankrd1. […] The iTEAD pretreated peritoneal macrophages and untreated T-cells isolated from the spleen of tumor naïve mice (FIG. 14, Panel A) were then mixed for 5 hours before collecting the conditioned media for analysis. […] Next, these immune cell mixes were added to 4T1 spheres that were embedded into matrix. […] This effect was reversed by an IL12 neutralizing antibody. No change in cleaved caspase-3 in 4T1 cells in the presence of VT107-treated T-cells or macrophages alone, was detected at 24 hours (FIG. 14, Panels C and D). 4T1 cells were then plated and allowed to attach on electrode-coated arrays to monitor cancer cell viability before the addition of macrophages+/−iTEAD and T-cells. […] This reversal of T-cell cytotoxicity by IL12 antibodies was not observed in VT107-treated T-cells in the absence of macrophages (FIG. 15, Panel E) indicating a critical role for IL12 in the crosstalk between macrophages and T-cells.
The hippo pathway has been implicated in T-cell development and function (Du et al., 2014; Ueda et al., 2012). For example, YAP expression is essential for tumor immune suppression by Treg cells that attenuates CD8 T-cell immunity (Geng et al., 2017; Ni et al., 2018; Lebid et al., 2020). […] To investigate whether VT107 directly affected T-cells, T-cells treated with VT107 were co-cultured with 4T1 cells in 2D for 72 hours. […] To further confirm T-cell activation upon TEAD activity reduction, we used Jurkat cells, a CD4 positive human lymphoma cell line (Schneider et al., 1977). […] However, here we show the specific effect of TEAD reduction on granzyme gene expression and degranulation that result in the killing of cancer cells.
One thousand 4T1 cells were aggregated in 81-well agarose molds (Microtissues, #Z764019). […] Images were captured using the Olympus BX40 microscope, and DAB signal per sphere was quantified in imageJ and normalized to the number of nuclei. […]

[1] = test system: lung resident macrophages; experiment: Cytokine array of conditioned media, isolated lung macrophages; assay type: cell-based, C57BL/6 mice
Description: Due to the shifts in immune signaling observed in the lung tissue upon TEAD inhibition (FIG. 9), immune cell populations were first analyzed by flow cytometry in the lungs and spleens of tumor naïve mice. Consistent with the Cibersort analysis of RNA-seq data, there was a decrease in the monocytes population and an increase in the tissue-resident alveolar macrophages (AM) (FIG. 10, Panel A). […] Next, it was sought to determine the specific effects of iTEAD treatment on lung resident versus bone-marrow derived macrophages, as the dynamics of these cell populations are crucial for the establishment of the metastatic niche (Ries et al., 2014; Qian et al., 2011). Macrophages were retrieved from the lungs by isolating F4/80+ cells, a specific marker for murine macrophages, by FACS (fluorescence-activated cell sorting) as well as bone marrow-derived macrophages from the femurs of naïve C57BL/6 mice that were then differentiated in vitro using macrophage colony stimulating factor (M-CSF). Macrophages were treated with 1 μM of VT107 for 24 hours before the conditioned media was collected and analyzed on a cytokine array. […] There was no change in the level of the other cytokines detected (FIG. 10, Panel B).
Cells were grown in their recommended cell culture media and treated with […] VT107 for 24 or 72 hours. Conditioned media was collected and passed through a 0.2 micron PES filter then analyzed on a RayBio® Mouse Cytokine Array (#AAM-TCR-1) according to the manufacture's protocol. The array includes two spots for each cytokine. The luminescence signal was normalized to the positive control on each membrane, then to the vehicle treatment signal of each cytokine.

Substance: VT107
- cleaved caspase-3 in 4T1 cells (4T1 spheres; VT107-treated T-cells or macrophages alone): No change
- cleaved caspase-3 IHC staining of 4T1 spheres (4T1 spheres; co-culture with T-cells treated with 1 μM VT107, 72 hours): increased
- number of 4T1 cells per sphere (4T1 spheres; co-culture with T-cells treated with 1 μM VT107, 72 hours vs vehicle): significantly reduced
- cleaved caspase-3 in 4T1 cells (4T1 spheres; iTEAD-treated macrophages and T-cells, spheres in matrix): elevated signal
- level of the other cytokines detected ([1]; 1 μM VT107 24 hours, lung and bone marrow-derived macrophages): no change
- secreted IL4 ([1]; 1 μM VT107 for 24 hours): significantly higher level
- secreted IL12 ([1]; 1 μM VT107 for 24 hours): significantly higher level
